Assay results as given in patent US12703712B2, “Indenonaphthopyrans having trialkylsilyl and ethylenically unsaturated groups” (Transitions Optical, Ltd., priority 2021, dated 2026).

Test: Solubility evaluation in polymerizable polysiloxane-containing formulation
Type: physicochemical
Details: 0.06 g photochromic compound in 1.50 g polymerizable polysiloxane-containing formulation of Table 1; stirred 24 hours at room temperature; visual observation
Procedure: A polymerizable polysiloxane-containing formulation was prepared by mixing together the ingredients and in the amounts as tabulated in the following Table 1.
The photochromic compounds of Comparative Examples CE-1 and CE-2, and Examples 4 and 5, prepared as described in Part-1, were each added to a polymerizable polysiloxane-containing formulation according to Table 1, to form Polymerizable Photochromic Compositions A, B, C, and D, as summarized in the following Table 2. The Polymerizable Photochromic Compositions were each stirred for 24 hours at room temperature after which the solubility of the photochromic compounds was determined by visual observation.

Compound	Observed Solubility
C=C(C)C(=O)OCCOCCOCCOc1ccc(C2(c3ccccc3)C=Cc3c4c(c5cc(N6CCCCC6)c(OC)cc5c3O2)-c2ccc(-c3ccccc3)cc2C4(CCC)CCC)cc1 (stereo not shown) [CE-1]	poor
C=C(C)C(=O)OCCOC(=O)CCC(=O)N1CCN(c2ccc(C3(c4ccccc4)C=Cc4c5c(c6cc(N7CCCCC7)c(OC)cc6c4O3)-c3ccccc3C5(C)C)cc2)CC1 (stereo not shown) [CE-2]	poor
C=C(C)C(=O)OCCOCCOCCOc1ccc(C2(c3ccccc3)C=Cc3c4c(c5cc(N6CCCCC6)c(OC)cc5c3O2)-c2ccc(-c3ccc([Si](C)(C)C)cc3)cc2C4(CCC)CCC)cc1 (stereo not shown) [Example 4, 6-methoxy-7-(piperidin-1-yl)-11-(4-trimethylsilylphenyl)-13,13-dipropyl-3-phenyl-3-(2-(2-(1-methacroylethoxy)ethoxy)ethoxy)phenyl-3H,13H-indeno[2′,3′: 3,4]naphtho[1,2-b]pyran]	excellent
C=C(C)C(=O)OCCOC(=O)CCC(=O)N1CCN(c2ccc(C3(c4ccccc4)C=Cc4c5c(c6cc(N7CCCCC7)c(OC)cc6c4O3)-c3ccc([Si](C)(C)C)cc3C5(C)C)cc2)CC1 (stereo not shown) [Example 5]	excellent
